Test results from patent US20230167088A1, “1-PYRAZINYLPYRAZOLYL-3-OXYALKYL ACIDS AND THEIR DERIVATIVES, AND THEIR USE FOR CONTROL OF UNDESIRED PLANT GROWTH” (BAYER AKTIENGESELLSCHAFT, priority 2020, published 2023).

How the values were obtained:
AVEFA = test: Herbicidal post-emergence action 1a (greenhouse pots, visual rating); assay type: in vivo, Avena fatua; details: rated visually about 3 weeks after treatment, 100% = plants have died, 0% = like control plants
How it was run: (§1)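 Visual scoring versus untreated plants (100% = plants dead, 0% = as control) followed roughly 3 weeks in the greenhouse after treatment. Plants grown in sandy loam pots had been sprayed on green parts at the one-leaf stage, 2–3 weeks post-sowing, with aqueous WP/EC preparations containing 0.5% additive, 600 l/ha, at 320 and/or 80 g/ha.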

LOLRI = test: as above; assay type: in vivo, Lolium rigidum; details: rated visually about 3 weeks after treatment, 100% = plants have died, 0% = like control plants
How it was run: as §1

AMARE = test: as above; assay type: in vivo, Amaranthus retroflexus; details: visual rating about 3 weeks after treatment
How it was run: as §1

MATIN [1] = test: as above; assay type: in vivo, Matricaria inodora; details: visual rating about 3 weeks after treatment
How it was run: as §1

STEME = test: Herbicidal post-emergence action 1b (twin sowing, 1280 g/ha); assay type: in vivo, Stellaria media; details: dosage 1280 g/ha, visual rating about 3 weeks after treatment
How it was run: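 Compounds formulated as WP or EC were applied with 0.5% additive in 600 L/ha water onto one-leaf-stage weeds, each pot sown with one monocot and one dicot species in sandy loam. After roughly 3 weeks in the greenhouse, visual percent activity was scored against untreated plants.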

ECHCG [2] = test: Herbicidal pre-emergence action 2a (greenhouse pots, visual scoring); assay type: in vivo, Echinochloa crus-galli; details: dosage 320 g/ha, visual scoring after about 3 weeks
How it was run: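 Pots of covered seed were sprayed pre-emergence at 320 and/or 80 g/ha. Roughly three weeks of greenhouse growth preceded visual scoring in percent versus untreated controls.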

POAAN = test: Herbicidal pre-emergence action 2b (doubly sown, 1280 g/ha); assay type: in vivo, Poa annua; details: doubly sown pots, dosage 1280 g/ha, visual scoring after about 3 weeks
How it was run: (§2)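 Visual % scores against untreated plants (0% = like control, 100% = dead) were taken roughly 3 weeks after treatment in the greenhouse. Compounds, as WP or EC with 0.5% additive, were applied in 600 l/ha water onto covering soil over seeds of paired mono-/dicot weeds in sandy loam.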

MATIN [3] = test: as above; assay type: in vivo, Matricaria inodora; details: doubly sown pots, dosage 1280 g/ha, visual scoring after about 3 weeks
How it was run: as §2

harmful plants = test: Herbicidal pre-emergence action 2a, summary across species; assay type: in vivo; details: Tables B1 to B15 (320 g/ha and/or 80 g/ha)
How it was run: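 Pre-emergence greenhouse test: WP or EC formulations sprayed onto soil covering sown weed and crop seeds, 600 l/ha water with 0.5% additive, at 320 g/ha and/or 80 g/ha. Damage scored visually after about 3 weeks as % versus untreated control (100% = plants dead).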

ECHCG [4] = test: Herbicidal post-emergence action 1a (greenhouse pots, visual rating); assay type: in vivo, Echinochloa crus-galli; details: rated visually about 3 weeks after treatment, 100% = plants have died, 0% = like control plants
How it was run: as §1

ABUTH = test: as above; assay type: in vivo, Abutilon theophrasti; details: visual rating about 3 weeks after treatment
How it was run: as §1

SMILES: COC(=O)[C@@H](C)Oc1nn(-c2cnccn2)c(-c2ccc(F)c(F)c2)c1C#N [Example I-46]
- Post-emergence action against AVEFA in % (AVEFA; Dosage 80 g/ha): 80%
- Post-emergence action against AVEFA in % (AVEFA; Dosage 320 g/ha): 80%
- Post-emergence action against LOLRI in % (LOLRI; Dosage 80 g/ha): 90%
- Post-emergence action against LOLRI in % (LOLRI; Dosage 320 g/ha): 90%
- Post-emergence action against AMARE in % (AMARE; dosage 80 g/ha): 80%
- Post-emergence action against AMARE in % (AMARE; dosage 320 g/ha): 80%
- Post-emergence action against MATIN in % (MATIN [1]; dosage 320 g/ha): 80%
- Post-emergence action at 1280 g/ha against STEME in % (STEME): 90%
- Pre-emergence action against ECHCG in % (ECHCG [2]): 100%
- Pre-emergence action at 1280 g/ha against POAAN in % (POAAN): 100%
- Pre-emergence action at 1280 g/ha against MATIN in % (MATIN [3]): 100%
- herbicidal efficacy against harmful plants in the case of pre-emergence treatment (in words) (harmful plants): good herbicidal efficacy

SMILES: COC(=O)[C@@H](C)Oc1nn(-c2cnccn2)c(-c2ccnc(F)c2)c1Br [Example I-34]
- Post-emergence action against AVEFA in % (AVEFA; Dosage 320 g/ha): 90%
- Post-emergence action against LOLRI in % (LOLRI; Dosage 320 g/ha): 80%
- Post-emergence action against AMARE in % (AMARE; dosage 320 g/ha): 80%
- Post-emergence action against MATIN in % (MATIN [1]; dosage 320 g/ha): 90%
- Post-emergence action at 1280 g/ha against STEME in % (STEME): 100%
- Pre-emergence action against ECHCG in % (ECHCG [2]): 80%
- Pre-emergence action at 1280 g/ha against POAAN in % (POAAN): 100%
- Pre-emergence action at 1280 g/ha against MATIN in % (MATIN [3]): 100%
- herbicidal efficacy against harmful plants in the case of pre-emergence treatment (in words) (harmful plants): good herbicidal efficacy

SMILES: COC(=O)[C@@H](C)Oc1nn(-c2cnccn2)c(-c2cncc(F)c2)c1Br [Example I-39]
- Post-emergence action against AVEFA in % (AVEFA; Dosage 80 g/ha): 80%
- Post-emergence action against AVEFA in % (AVEFA; Dosage 320 g/ha): 90%
- Post-emergence action against ECHCG in % (ECHCG [4]; Dosage 80 g/ha): 80%
- Post-emergence action against ECHCG in % (ECHCG [4]; Dosage 320 g/ha): 90%
- Post-emergence action against LOLRI in % (LOLRI; Dosage 80 g/ha): 90%
- Post-emergence action against LOLRI in % (LOLRI; Dosage 320 g/ha): 90%
- Post-emergence action against ABUTH in % (ABUTH; dosage 80 g/ha): 80%
- Post-emergence action against ABUTH in % (ABUTH; dosage 320 g/ha): 80%
- Post-emergence action against AMARE in % (AMARE; dosage 320 g/ha): 80%
- Post-emergence action against MATIN in % (MATIN [1]; dosage 80 g/ha): 80%
- Post-emergence action against MATIN in % (MATIN [1]; dosage 320 g/ha): 90%
- Post-emergence action at 1280 g/ha against STEME in % (STEME): 100%
- Pre-emergence action against ECHCG in % (ECHCG [2]): 100%
- Pre-emergence action at 1280 g/ha against POAAN in % (POAAN): 100%
- Pre-emergence action at 1280 g/ha against MATIN in % (MATIN [3]): 100%
- herbicidal efficacy against harmful plants in the case of pre-emergence treatment (in words) (harmful plants): good herbicidal efficacy

SMILES: C[C@@H](Oc1nn(-c2cnccn2)c(-c2cccc(F)c2)c1Br)C(=O)O [Example I-48]
- Post-emergence action against AVEFA in % (AVEFA; Dosage 80 g/ha): 80%
- Post-emergence action against ECHCG in % (ECHCG [4]; Dosage 80 g/ha): 90%
- Post-emergence action at 1280 g/ha against STEME in % (STEME): 100%
- Pre-emergence action against ECHCG in % (ECHCG [2]): 100%
- Pre-emergence action at 1280 g/ha against POAAN in % (POAAN): 100%
- Pre-emergence action at 1280 g/ha against MATIN in % (MATIN [3]): 100%
- herbicidal efficacy against harmful plants in the case of pre-emergence treatment (in words) (harmful plants): good herbicidal efficacy

SMILES: COC(=O)[C@@H](C)Oc1nn(-c2cnccn2)c(-c2ccc(F)nc2)c1Cl [Example I-36]
- Post-emergence action against AVEFA in % (AVEFA; Dosage 80 g/ha): 90%
- Post-emergence action against AVEFA in % (AVEFA; Dosage 320 g/ha): 90%
- Post-emergence action against LOLRI in % (LOLRI; Dosage 320 g/ha): 90%
- Post-emergence action against ABUTH in % (ABUTH; dosage 320 g/ha): 80%
- Post-emergence action against AMARE in % (AMARE; dosage 80 g/ha): 90%
- Post-emergence action against AMARE in % (AMARE; dosage 320 g/ha): 90%
- Post-emergence action against MATIN in % (MATIN [1]; dosage 320 g/ha): 80%
- Post-emergence action at 1280 g/ha against STEME in % (STEME): 100%
- Pre-emergence action against ECHCG in % (ECHCG [2]): 100%
- Pre-emergence action at 1280 g/ha against POAAN in % (POAAN): 100%
- Pre-emergence action at 1280 g/ha against MATIN in % (MATIN [3]): 90%
- herbicidal efficacy against harmful plants in the case of pre-emergence treatment (in words) (harmful plants): good herbicidal efficacy

SMILES: C[C@H](Oc1nn(-c2cnccn2)c(-c2cncc(F)c2)c1Br)C(=O)O [Example I-37]
- Post-emergence action against AVEFA in % (AVEFA; Dosage 80 g/ha): 90%
- Post-emergence action against AVEFA in % (AVEFA; Dosage 320 g/ha): 90%
- Post-emergence action against ECHCG in % (ECHCG [4]; Dosage 320 g/ha): 90%
- Post-emergence action against LOLRI in % (LOLRI; Dosage 320 g/ha): 90%
- Post-emergence action against ABUTH in % (ABUTH; dosage 80 g/ha): 80%
- Post-emergence action against ABUTH in % (ABUTH; dosage 320 g/ha): 80%
- Post-emergence action against AMARE in % (AMARE; dosage 320 g/ha): 90%
- Post-emergence action against MATIN in % (MATIN [1]; dosage 320 g/ha): 80%
- Post-emergence action at 1280 g/ha against STEME in % (STEME): 100%
- Pre-emergence action against ECHCG in % (ECHCG [2]): 90%
- Pre-emergence action at 1280 g/ha against POAAN in % (POAAN): 100%
- Pre-emergence action at 1280 g/ha against MATIN in % (MATIN [3]): 100%
- herbicidal efficacy against harmful plants in the case of pre-emergence treatment (in words) (harmful plants): good herbicidal efficacy

SMILES: CCOC(=O)COc1nn(-c2cnccn2)c(-c2ccccc2)c1Br [Example I-01]
- Post-emergence action against ECHCG in % (ECHCG [4]; Dosage 320 g/ha): 90%
- Post-emergence action against LOLRI in % (LOLRI; Dosage 320 g/ha): 90%
- Post-emergence action against ABUTH in % (ABUTH; dosage 320 g/ha): 80%
- Post-emergence action against AMARE in % (AMARE; dosage 80 g/ha): 80%
- Post-emergence action against AMARE in % (AMARE; dosage 320 g/ha): 90%
- Post-emergence action against MATIN in % (MATIN [1]; dosage 80 g/ha): 80%
- Post-emergence action against MATIN in % (MATIN [1]; dosage 320 g/ha): 90%
- Post-emergence action at 1280 g/ha against STEME in % (STEME): 100%
- Pre-emergence action against ECHCG in % (ECHCG [2]): 80%
- Pre-emergence action at 1280 g/ha against POAAN in % (POAAN): 100%
- Pre-emergence action at 1280 g/ha against MATIN in % (MATIN [3]): 100%
- herbicidal efficacy against harmful plants in the case of pre-emergence treatment (in words) (harmful plants): good herbicidal efficacy

SMILES: CCOC(=O)COc1nn(-c2cnccn2)c(-c2ccc(F)nc2)c1Cl [Example I-53]
- Post-emergence action against ECHCG in % (ECHCG [4]; Dosage 80 g/ha): 80%
- Post-emergence action against ABUTH in % (ABUTH; dosage 80 g/ha): 80%
- Post-emergence action against AMARE in % (AMARE; dosage 80 g/ha): 80%
- Post-emergence action against MATIN in % (MATIN [1]; dosage 80 g/ha): 80%
- Post-emergence action at 1280 g/ha against STEME in % (STEME): 100%
- Pre-emergence action against ECHCG in % (ECHCG [2]): 100%
- Pre-emergence action at 1280 g/ha against POAAN in % (POAAN): 100%
- Pre-emergence action at 1280 g/ha against MATIN in % (MATIN [3]): 100%
- herbicidal efficacy against harmful plants in the case of pre-emergence treatment (in words) (harmful plants): good herbicidal efficacy

SMILES: COC(=O)[C@@H](C)Oc1nn(-c2cnccn2)c(-c2cccc(F)c2)c1Br [Example I-20]
- Post-emergence action against AVEFA in % (AVEFA; Dosage 80 g/ha): 90%
- Post-emergence action against AVEFA in % (AVEFA; Dosage 320 g/ha): 90%
- Post-emergence action against ECHCG in % (ECHCG [4]; Dosage 320 g/ha): 80%
- Post-emergence action against LOLRI in % (LOLRI; Dosage 80 g/ha): 90%
- Post-emergence action against LOLRI in % (LOLRI; Dosage 320 g/ha): 100%
- Post-emergence action against ABUTH in % (ABUTH; dosage 80 g/ha): 80%
- Post-emergence action against ABUTH in % (ABUTH; dosage 320 g/ha): 90%
- Post-emergence action against AMARE in % (AMARE; dosage 80 g/ha): 90%
- Post-emergence action against AMARE in % (AMARE; dosage 320 g/ha): 100%
- Post-emergence action at 1280 g/ha against STEME in % (STEME): 100%
- Pre-emergence action against ECHCG in % (ECHCG [2]): 90%
- Pre-emergence action at 1280 g/ha against POAAN in % (POAAN): 100%
- Pre-emergence action at 1280 g/ha against MATIN in % (MATIN [3]): 100%
- herbicidal efficacy against harmful plants in the case of pre-emergence treatment (in words) (harmful plants): good herbicidal efficacy
